Here are results for one compound from patent publication US20220372448A1, “CELL LINE AND PRODUCING METHOD THEREOF” (University of Yamanashi, priority 2021, published 2022).

In the data set the test system is VeroE6/Rep #3 cells. Briefly: MTS assay for cell survival rate of VeroE6/Rep #3 cells. Conditions: 72 hours, EIDD-2801 20 μM, library compounds 10 μM.

With `CC(C)C(=O)OC[C@H]1O[C@@H](n2ccc(NO)nc2=O)[C@H](O)[C@@H]1O` [EIDD-2801, molnupiravir], the “cell proliferation / cell survival (MTS assay) compared with DMSO negative control” value is listed as “a decrease in cell proliferation was not observed”.
